Laboratory results published in patent publication US20140235685A1, “PHARMACEUTICAL COMPOSITIONS COMPRISING 4-BROMO-N-(IMIDAZOLIDIN-2-YLIDENE)-1H-BENZIMIDAZOL-5-AMINE FOR TREATING SKIN DISEASES” (Allergan, Inc., priority 2011, published 2014).

System: cutaneous blood flow in the microvasculature of the hind foot pad
Assay: Rat Blood Flow Assay (laser Doppler flowmetry, hind foot pad)
Assay type: in vivo
Method: α-adrenergic agonists that act on the sympathetic nervous system outflow can regulate cutaneous blood flow in response to temperature changes.
A laser Doppler microvascular perfusion monitor (Laser Doppler Flowmetry LDP technique), was used to monitor red blood cell perfusion in the microvasculature of the hind foot pad. The laser doppler flowmetry (LDP) is an OxyFlo Microvascular Perfusion Monitor, from Oxford Optronix LTd. UK.
Briefly, 15 μL of test articles were applied topically to one hind foot pad of anaesthetized CD rats and 15 μL of vehicle was applied to the other footpad. The hairless CD rats used are a spontaneous mutation model isolated from a Crl:CD(SD) colony in Charles River, in the late 1980s. Rederived in 1993 and subsequently transferred to Charles River, Raleigh, N.C. for barrier room production. […] Specific genetic analysis to identify the mutation has not been undertaken. Histopathology has determined the model is euthymic.
Thirty minutes following test article administration, dynamic blood flow changes were measured and recorded every 15 seconds for 4 minutes per temperature interval for 5 intervals (22° C.→37° C.→4° C.→37° C.→22° C.). Rats were placed on a 37° C. heat pad to increase their temperature and on an ice pad to decrease their temperature to 4° C. The level of blood flow in the two paws was compared. […] It has a significant difference.

Brc1c(N=C2NCCN2)ccc2[nH]cnc12 [4-bromo-N-(imidazolidin-2-ylidene)-1H-benzimidazol-5-amine]
effect on induced vessel dilation caused at 37° C. (topical application to the skin at a concentration of 0.5%, FIG. 1): inhibited the induced vessel dilation
overall blood flow inhibition (topical, 15 μL to one hind foot pad of anaesthetized hairless CD rats vs vehicle on other footpad, measured 30 min after application over 5 temperature intervals (22→37→4→37→22° C.), P=0.014): 17%
